4 compounds from patent publication US20230278972A1, “SUBSTITUTED HALOALKYL SULFONANILIDE HERBICIDES” (FMC Corporation, priority 2020, published 2023) can be followed below.

Common to all, as to type: in vivo
In assay [1] the test system is barnyardgrass (Echinochloa crus-galli). Briefly: Test A preemergence, barnyardgrass. The conditions noted are these: Preemergence, 1000 g ai/ha; 0 to 100 scale (0 no effect, 100 complete control). The procedure, abridged:
(§1)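 Compounds in non-phytotoxic solvent with surfactant. Soil: loam/sand. Preemergence via directed soil spray after seeding; postemergence on seedlings 2–10 cm, one- to two-leaf.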

Assay [2] has as its system kochia (Bassia scoparia). The assay can be described thus: Test A preemergence, kochia. The conditions noted are these: Preemergence, 1000 g ai/ha; 0 to 100 scale (0 no effect, 100 complete control). The procedure, abridged: as §1
The test system of assay [3] is ragweed (common ragweed, Ambrosia artemisiifolia). The assay can be described thus: Test A preemergence, ragweed. The conditions noted are these: Preemergence, 1000 g ai/ha; 0 to 100 scale (0 no effect, 100 complete control). The procedure, abridged:
as §1

Assay [4] deals with Ryegrass, Italian (Italian ryegrass, Lolium multiflorum). Briefly: Test A preemergence, Ryegrass, Italian. The conditions noted are these: Preemergence, 1000 g ai/ha; 0 to 100 scale (0 no effect, 100 complete control). The procedure, abridged: as §1
The subject of assay [5] is Foxtail, Giant (giant foxtail, Setaria faberi). Briefly: Test A preemergence, Foxtail, Giant. To be noted: Preemergence, 1000 g ai/ha; 0 to 100 scale (0 no effect, 100 complete control). The procedure, abridged:
as §1

The subject of assay [6] is pigweed (Amaranthus retroflexus). Briefly: Test A preemergence, pigweed. To be noted: 1000 g ai/ha, 0 to 100 scale (0 no effect, 100 complete control). The procedure, abridged: (§2)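 Seeds are sown in loam mixed with sand and sprayed on the soil surface right after planting for the preemergence test. Postemergence pots are sprayed once seedlings reach 2 to 10 cm at the one- to two-leaf stage. The same surfactant-containing, non-phytotoxic solvent formulation serves both.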

Assay [7] deals with barnyardgrass (Echinochloa crus-galli). The assay can be described thus: Test A postemergence, barnyardgrass. The conditions noted are these: Postemergence, 1000 g ai/ha; visual injury, 0 to 100 scale (0 no effect, 100 complete control), approx. 10 days. The procedure, abridged: as §2
Assay [8] relates to kochia (Bassia scoparia). The assay can be described thus: Test A postemergence, kochia. The conditions noted are these: Postemergence, 1000 g ai/ha; visual injury, 0 to 100 scale (0 no effect, 100 complete control), approx. 10 days. The procedure, abridged:
as §1

For assay [9], the system named is ragweed (common ragweed, Ambrosia artemisiifolia). The assay can be described thus: Test A postemergence, ragweed. To be noted: Postemergence, 1000 g ai/ha; visual injury, 0 to 100 scale (0 no effect, 100 complete control), approx. 10 days. The procedure, abridged: as §1
Assay [10] has as its system Ryegrass, Italian (Italian ryegrass, Lolium multiflorum). Briefly: Test A postemergence, Ryegrass, Italian. The conditions noted are these: Postemergence, 1000 g ai/ha; visual injury, 0 to 100 scale (0 no effect, 100 complete control), approx. 10 days. The procedure, abridged: as §1
Assay [11] has as its system Foxtail, Giant (giant foxtail, Setaria faberi). The assay can be described thus: Test A postemergence, Foxtail, Giant. To be noted: Postemergence, 1000 g ai/ha; visual injury, 0 to 100 scale (0 no effect, 100 complete control), approx. 10 days. The procedure, abridged: as §1
For assay [12], the system named is pigweed (Amaranthus retroflexus). The assay can be described thus: Test A postemergence, pigweed. The conditions noted are these: Postemergence, 1000 g ai/ha; visual injury, 0 to 100 scale (0 no effect, 100 complete control), approx. 10 days. The procedure, abridged:
as §1

In assay [13] the test system is wheat (Triticum aestivum). Briefly: Test A postemergence, wheat. The conditions noted are these: Postemergence, 1000 g ai/ha; visual injury, 0 to 100 scale (0 no effect, 100 complete control), approx. 10 days. The procedure, abridged: as §2
The test system of assay [14] is corn (Zea mays). The assay can be described thus: Test A postemergence, corn. To be noted: Postemergence, 1000 g ai/ha; visual injury, 0 to 100 scale (0 no effect, 100 complete control), approx. 10 days. The procedure, abridged: as §1
In assay [15] the test system is blackgrass (Alopecurus myosuroides). The assay can be described thus: Test A postemergence, blackgrass. To be noted: Postemergence, 1000 g ai/ha; visual injury, 0 to 100 scale (0 no effect, 100 complete control), approx. 10 days. The procedure, abridged:
as §1

In assay [16] the test system is galium (catchweed bedstraw, Galium aparine). The assay can be described thus: Test A postemergence, galium. The conditions noted are these: Postemergence, 1000 g ai/ha; visual injury, 0 to 100 scale (0 no effect, 100 complete control), approx. 10 days. The procedure, abridged: as §2

With `COc1cc(Cl)c(NS(=O)(=O)C(F)(F)F)cc1C(=O)N1CCOCC1` [Compound 258], the “Plant response rating, Barnyardgrass” value was determined as 80 in assay [1] and 70 in [7]. In addition, the “Plant response rating, Kochia” value in assay [2] and in assay [8] was 90 in each case. For the same compound, the “Plant response rating, Ragweed” value in assay [3] was determined as 90; in assay [9], 80. Besides, the “Plant response rating, Ryegrass, Italian” value in assay [4] and in assay [10] was 70 throughout. The “Plant response rating, Foxtail, Giant” value is listed as 90 in assay [5] and 50 in assay [11]. Also, the results for the “Plant response rating, Pigweed” value in assay [6] and in assay [12] were 100 and 80, respectively. Moreover, the “Plant response rating, Wheat” value in [13] was determined as 30. Further, in assay [14], the “Plant response rating, Corn” value is 10. Further, the “Plant response rating, Blackgrass” value in assay [15] was 50. Further, the “Plant response rating, Galium” value in assay [16] worked out at 80.
Consider `Cc1ccc(C(=O)N2CCCCC2)cc1NS(=O)(=O)C(F)(F)F` [Compound 259], for which the “Plant response rating, Barnyardgrass” value in [1] amounted to 90; in assay [7], 0. The “Plant response rating, Kochia” value in [2] and in assay [8] was 40 in each case. In addition, the entries for the “Plant response rating, Ragweed” value in assay [3] and in [9] were 70 and 10, respectively. Also, the “Plant response rating, Ryegrass, Italian” value is 80 in assay [4] and 10 in assay [10]. Besides, the “Plant response rating, Foxtail, Giant” value in assay [5] stood at 90; in assay [11] it was 0. Also, the “Plant response rating, Pigweed” value in assay [6] was determined as 80; in assay [12] it was 40. The “Plant response rating, Wheat” value in [13] is reported as 0. In addition, the “Plant response rating, Corn” value in [14] worked out at 10. In addition, in [15], the “Plant response rating, Blackgrass” value amounted to 50. Moreover, the “Plant response rating, Galium” value in assay [16] came to 60.
Take `Cc1cc(C)c(C(=O)N2CCC(C(C)(C)C)CC2)cc1NS(=O)(=O)C(F)(F)F` [Compound 261]: the “Plant response rating, Barnyardgrass” value in assay [1] came to 60; in [7], 0. In addition, the “Plant response rating, Kochia” value in [2] and in assay [8] was 0 throughout. Moreover, the “Plant response rating, Ragweed” value in assay [3] and in assay [9] was 0 throughout. Besides, the entries for the “Plant response rating, Ryegrass, Italian” value in [4] and in [10] were 60 and 20, respectively. Moreover, the “Plant response rating, Foxtail, Giant” value in [5] was found to be 90; in assay [11] it was 0. Further, the “Plant response rating, Pigweed” value in [6] came out at 20; in [12], 30. Besides, the “Plant response rating, Wheat” value in assay [13] is on record as 0. For the same compound, the “Plant response rating, Corn” value in assay [14] was determined as 10. In addition, the “Plant response rating, Blackgrass” value in assay [15] is 0. In addition, the “Plant response rating, Galium” value in assay [16] came out at 50.
With `Cc1ccc(C(=O)N2CCC(C(C)(C)C)CC2)cc1NS(=O)(=O)C(F)(F)F` [Compound 262], the “Plant response rating, Barnyardgrass” value is listed as 20 in [1] and 0 in assay [7]. In addition, the “Plant response rating, Kochia” value in assay [2] and in assay [8] was 0 in each case. Besides, the “Plant response rating, Ragweed” value in [3] and in assay [9] was 0 each time. Moreover, the “Plant response rating, Ryegrass, Italian” value in assay [4] and in assay [10] was 20 throughout. Besides, the “Plant response rating, Foxtail, Giant” value in assay [5] was 70; in assay [11] it was 0. Also, the “Plant response rating, Pigweed” value is 0 in assay [6] and 20 in assay [12]. Moreover, the “Plant response rating, Wheat” value in assay [13] is on record as 0. In [14], the “Plant response rating, Corn” value is 0. Besides, in assay [15], the “Plant response rating, Blackgrass” value turned out to be 20. The “Plant response rating, Galium” value in [16] was determined as 40.
